Assay results from ChEMBL document CHEMBL1201862, “PubChem BioAssay data set” (2004).
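Assay format: 96-well plates, 48-hour exposure. Abbreviation: GI50, concentration required for 50% inhibition of growth.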 Calls of active or inactive are those of the source. No stated cut-off is given here; in the data, active = GI50 up to about 1.1 µM and inactive = higher.

Key:
Experiment in all cases: NCI-60 cell line screen, 48 h
SK-OV-3 = system: SK-OV-3
KM12 = system: KM12
OVCAR-3 = system: OVCAR-3
COLO 205 = system: COLO 205
ACHN = system: ACHN
DU-145 = system: DU-145
A549 = system: A549
T47D = system: T47D
SW-620 = system: SW-620
NCI-H522 = system: NCI-H522
NCI-H460 = system: NCI-H460
SK-MEL-5 = system: SK-MEL-5
OVCAR-4 = system: OVCAR-4
SN12C = system: SN12C
UACC-257 = system: UACC-257
MDA-MB-435 = system: MDA-MB-435
HCC 2998 = system: HCC 2998
SK-MEL-2 = system: SK-MEL-2
786-0 = system: 786-0
SF-295 = system: SF-295
SF-268 = system: SF-268
HCT-116 = system: HCT-116
Hs-578T = system: Hs-578T
HCT-15 = system: HCT-15
HOP-92 = system: HOP-92
Malme-3M = system: Malme-3M
SK-MEL-28 = system: SK-MEL-28
NCI-H226 = system: NCI-H226
HOP-62 = system: HOP-62
MDA-N = system: MDA-N
BT-549 = system: BT-549
TK-10 = system: TK-10
MCF7 = system: MCF7
SNB-75 = system: SNB-75
IGROV-1 = system: IGROV-1
A498 = system: A498
CCRF-CEM = system: CCRF-CEM
MOLT-4 = system: MOLT-4
UO-31 = system: UO-31
U-251 = system: U-251
SNB-19 = system: SNB-19
M14 = system: M14
NCI/ADR-RES = system: NCI/ADR-RES
OVCAR-8 = system: OVCAR-8
RXF 393 = system: RXF 393
NCI-H23 = system: NCI-H23
HT-29 = system: HT-29
RPMI-8226 = system: RPMI-8226
OVCAR-5 = system: OVCAR-5
SF-539 = system: SF-539
SR = system: SR
LOX IMVI = system: LOX IMVI
CAKI-1 = system: CAKI-1
MDA-MB-231 = system: MDA-MB-231
PC-3 = system: PC-3
K562 = system: K562
HL-60 = system: HL-60
EKVX = system: EKVX
UACC-62 = system: UACC-62

c1ccc(CNC2CC(NCc3ccccn3)CC(NCc3ccccn3)C2)nc1 (centres undefined)
GI50 (SK-OV-3): 2.82 µM (inactive) | GI50 (KM12): 1.73 µM (inactive) | GI50 (OVCAR-3): 3.33 µM (inactive) | GI50 (COLO 205): 1.81 µM (inactive) | GI50 (ACHN): 12.5 µM (inactive) | GI50 (DU-145): 3.14 µM (inactive) | GI50 (A549): 2.61 µM (inactive) | GI50 (T47D): 4.61 µM (inactive) | GI50 (SW-620): 4.11 µM (inactive) | GI50 (NCI-H522): 2.62 µM (inactive) | GI50 (NCI-H460): 2.6 µM (inactive) | GI50 (SK-MEL-5): 2.25 µM (inactive) | GI50 (OVCAR-4): 2.88 µM (inactive) | GI50 (SN12C): 5.97 µM (inactive) | GI50 (UACC-257): 6.65 µM (inactive) | GI50 (MDA-MB-435): 3.28 µM (inactive) | GI50 (HCC 2998): 1.98 µM (inactive) | GI50 (SK-MEL-2): 2.58 µM (inactive) | GI50 (786-0): 3.02 µM (inactive) | GI50 (SF-295): 4.18 µM (inactive) | GI50 (SF-268): 4.53 µM (inactive) | GI50 (HCT-116): 2.23 µM (inactive) | GI50 (Hs-578T): 8.28 µM (inactive) | GI50 (HCT-15): 4.21 µM | GI50 (HOP-92): 3.24 µM (inactive) | GI50 (Malme-3M): 3.56 µM (inactive) | GI50 (SK-MEL-28): 4.75 µM (inactive) | GI50 (NCI-H226): 2.32 µM (inactive) | GI50 (HOP-62): 5.47 µM (inactive) | GI50 (MDA-N): 3.42 µM (inactive) | GI50 (BT-549): 6.79 µM (inactive) | GI50 (TK-10): 4.58 µM (inactive) | GI50 (MCF7): 2.29 µM (inactive) | GI50 (SNB-75): 2.97 µM (inactive) | GI50 (IGROV-1): 3.21 µM (inactive) | GI50 (A498): 1.82 µM (inactive) | GI50 (CCRF-CEM): 2.92 µM (inactive) | GI50 (MOLT-4): 3.96 µM (inactive) | GI50 (UO-31): 16.7 µM (inactive)

CC1=C(/C=C/C(=O)O)C(C)(C)CCC1
GI50 (U-251): > 100 µM (inactive) | GI50 (SK-OV-3): > 100 µM (inactive) | GI50 (OVCAR-3): > 100 µM (inactive) | GI50 (COLO 205): > 100 µM (inactive) | GI50 (ACHN): > 100 µM (inactive) | GI50 (DU-145): > 100 µM (inactive) | GI50 (SNB-19): > 100 µM (inactive) | GI50 (A549): > 100 µM (inactive) | GI50 (SW-620): > 100 µM (inactive) | GI50 (NCI-H522): > 100 µM (inactive) | GI50 (NCI-H460): > 100 µM (inactive) | GI50 (M14): > 100 µM (inactive) | GI50 (SK-MEL-5): > 100 µM (inactive) | GI50 (OVCAR-4): > 100 µM (inactive) | GI50 (NCI/ADR-RES): > 100 µM (inactive) | GI50 (SN12C): > 100 µM (inactive) | GI50 (UACC-257): > 100 µM (inactive) | GI50 (OVCAR-8): > 100 µM (inactive) | GI50 (RXF 393): > 100 µM (inactive) | GI50 (MDA-MB-435): > 100 µM (inactive) | GI50 (NCI-H23): > 100 µM (inactive) | GI50 (HT-29): > 100 µM (inactive) | GI50 (RPMI-8226): > 100 µM (inactive) | GI50 (HCC 2998): > 100 µM (inactive) | GI50 (SK-MEL-2): > 100 µM (inactive) | GI50 (786-0): > 100 µM (inactive) | GI50 (SF-295): > 100 µM (inactive) | GI50 (OVCAR-5): > 100 µM (inactive) | GI50 (SF-268): > 100 µM (inactive) | GI50 (SF-539): > 100 µM (inactive) | GI50 (HCT-116): > 100 µM (inactive) | GI50 (Hs-578T): > 100 µM (inactive) | GI50 (HCT-15): > 100 µM | GI50 (HOP-92): > 100 µM (inactive) | GI50 (Malme-3M): > 100 µM (inactive) | GI50 (SR): > 100 µM (inactive) | GI50 (SK-MEL-28): > 100 µM (inactive) | GI50 (LOX IMVI): > 100 µM (inactive) | GI50 (NCI-H226): > 100 µM (inactive) | GI50 (HOP-62): > 100 µM (inactive) | GI50 (MDA-N): > 100 µM (inactive) | GI50 (CAKI-1): > 100 µM (inactive) | GI50 (BT-549): > 100 µM (inactive) | GI50 (TK-10): > 100 µM (inactive) | GI50 (MCF7): > 100 µM (inactive) | GI50 (SNB-75): > 100 µM (inactive) | GI50 (IGROV-1): > 100 µM (inactive) | GI50 (MDA-MB-231): > 100 µM (inactive) | GI50 (A498): > 100 µM (inactive) | GI50 (PC-3): > 100 µM (inactive) | GI50 (K562): > 100 µM (inactive) | GI50 (HL-60): > 100 µM (inactive) | GI50 (UO-31): > 100 µM (inactive) | GI50 (EKVX): > 100 µM (inactive) | GI50 (UACC-62): > 100 µM (inactive)
